How the values were obtained:
[1] = tested on: EPO dependent UT-7/EPO cell line; assay: in vitro bioactivity (cell proliferation/viability, MTS) assay in EPO dependent UT-7/EPO cells; format: cell-based, human; settings: for activity/potency, fold greater than the EMP-1 peptide: viability 48 hours after treatment, molar basis; for activity compared with rHuEPO: in vitro cell proliferation assay
Procedure: The activity of EMP-Hinge core mimetibody was first tested in an in vitro bioactivity assay. For this assay, the EPO dependent UT-7/EPO cell line, derived from a patient with acute megakaryoblastic leukemia, was used (Komatsu et al., 1993, Blood, vol. 82 (2), 456-464). These cells undergo programmed cell death 48 to 72 hours after withdraw from media supplemented with rHuEPO. Cells that have been incubated in the absence of rHuEPO for 24 hours can be saved if treated with rHuEPO or an EPO agonist. EMP-Hinge core mimetibody was added to cells starved without rHuEPO and cell viability was determined 48 hours after treatment using the tetrazolium compound MTS (CellTiter 96 Aqueous One Solution, Promega) that is metabolized by living cells to yield a product with an absorbance that can be measured. […] In addition, these same cells were stimulated with EMP-Hinge core mimetibody and tyrosine phosphorylation patterns visualized by running cell lysate through a polyacrylamide gel.

normal mice = assay: in vivo effects on erythropoiesis (hematocrit) in normal mice; settings: for duration of response (elevated hematocrit) compared with rHuEPO / maximal hematocrit / maximal response compared with rHuEPO: normal mice, equal activity units / dosed equally
From the text: A specific, non-limiting, example of this invention is the EMP-hinge core mimetibody construct where V is the first several N-terminal amino acids of a naturally occurring HC or LC antibody, P is a single copy of the bioactive EMP-1 peptide and L is a tandem repeat of either Gly-Ser or Gly-Gly-Gly-Ser flexible linker, H is a hinge core region and CH2 & CH3 are of the IgG1 or IgG4 isotype subclass. It is thought that this structure will constrain the EMP-1 peptide, but allow sufficient flexibility such that the dimerization of the peptides as part of the assembled homodimer is stabilized. […] This construct is efficiently secreted from cells and appears to be properly folded; overcoming problems associated with 1st generation mimetibodies.
(§1) In vivo studies were done in normal mice to compare the half-life of EMP-Hinge core mimetibody to that of rHuEPO and to compare their effects on erythropoiesis.

[2] = tested on: cells that express the EPO receptor; assay: complement lysis of cells that express the EPO receptor (immune effector function); format: cell-based
From the text: It has been shown that mutation of two […] (L) residues, L234 & L235, in the IgG1 lower hinge region to alanine (A) will abrogate the ability of the immunoglobulin to mediate complement dependent cytotoxicity (CDC) and antibody dependant cellular cytotoxicity (ADCC) (Hezereh et al., 2001, J. Virol., vol. 75 (24), 12161-68). […] This may be due to the low number of receptors that are found on erythroid progenitor cells.

[3] = serum concentration by ELISA / half-life in normal mice; format: in vivo; settings: serum concentrations by ELISA
Procedure: as §1
The serum concentrations of both rHuEPO and EMP-Hinge core mimetibody were measured by ELISA.

EPO receptor = biological target: T1, EPO receptor (Homo sapiens, UniProt P19235); settings: cited from earlier work
T1 sequence (P19235 25-508): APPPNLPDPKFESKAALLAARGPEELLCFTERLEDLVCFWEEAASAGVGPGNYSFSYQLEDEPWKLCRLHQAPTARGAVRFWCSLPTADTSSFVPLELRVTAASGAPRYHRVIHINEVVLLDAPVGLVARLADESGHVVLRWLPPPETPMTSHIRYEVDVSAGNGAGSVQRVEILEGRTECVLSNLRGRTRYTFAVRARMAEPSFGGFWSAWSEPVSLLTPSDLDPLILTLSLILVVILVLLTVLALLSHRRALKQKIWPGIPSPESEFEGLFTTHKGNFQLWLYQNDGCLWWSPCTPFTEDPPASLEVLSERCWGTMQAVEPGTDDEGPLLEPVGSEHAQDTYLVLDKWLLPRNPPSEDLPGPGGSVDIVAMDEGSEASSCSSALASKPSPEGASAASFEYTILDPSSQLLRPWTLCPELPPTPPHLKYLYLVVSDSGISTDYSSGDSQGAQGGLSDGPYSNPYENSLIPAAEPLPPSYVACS

[4] = in 50% serum; cited from earlier work
[5] = cited from earlier work
[6] = listed as EMP-Hinge core mimetibody

For “EMP-hinge core mimetibody: V (QIQ)-EMP-1 peptide-GS or GGGS linker-hinge core CPPCP-CH2-CH3 of IgG1 or IgG4; assembled homodimer”, the “potency, fold less than rHuEPO” value ([1]; UT-7/EPO cells, on a molar basis) was 5 fold, the “activity/potency, fold greater than the EMP-1 peptide” value ([1]; UT-7/EPO cells) was “more than 500 fold” and the “activity/potency, fold greater than the EMP-1 peptide” value ([1]; UT-7/EPO cells, listed as EMP-Hinge core mimetibody) was 500 fold. For the same substance, the “activity compared with rHuEPO” value [1] was “substantially similar”, the “activity compared with rHuEPO” value [1, 6] was “in the range of rHuEPO” and the “change in hematocrit (in vivo expansion of erythroid progenitors)” value (normal mice; in vivo) was “significant increases in hematocrit”. The “duration of response (elevated hematocrit) compared with rHuEPO” value (normal mice) was “elevated levels are maintained for a longer period”, the “maximal hematocrit / maximal response compared with rHuEPO” value (normal mice) was “significantly higher” and the “duration of response (elevated hematocrit) compared with rHuEPO” value (normal mice; [6]) was “prolonged”. The “maximal hematocrit / maximal response compared with rHuEPO” value (normal mice; [6]) was “higher maximal response”, the “effector function associated effects” value [2] was “no effector function associated affects have been observed” and the “complement lysis of cells that express the EPO receptor” value ([2]; preliminary studies) was “does not mediate complement lysis”. For the same substance, the “approximate half-life relative to rHuEPO” value [3] was “at least several times”.
In the case of GGTYSCHFGPLTWVCKPQGG [EMP-1], the “activity, fold less than HuEPO” value (EPO receptor) is listed as 10,000 to 100,000 fold and the ex-vivo half-life [4] is listed as 8 h.
For “erythropoietin: glycoprotein hormone of 165 amino acids and four carbohydrate chains, primary regulator of erythropoiesis”, the “time at which peak serum levels are achieved” value ([5]; after subcutaneous administration) is listed as 5 to 24 h, the circulating half-life ([5]; intravenously administered, patients with CRF) is listed as 3 to 4 h and the “detectable levels of plasma erythropoietin maintained” value ([5]; within the therapeutic dose range) is listed as “at least 24 hours”.
